According to publication PMC9654820, “Immunosuppressive Sesquiterpene Pyridine Alkaloids from Tripterygium wilfordii Hook. f” (Molecules, 2022):
“Also recorded” adds a separate entry of the source.

Legend:
Assay type in all cases: cell-based
[1] = Cell viability assay (CCK-8); settings: human; HEK293 cells, CCK-8, compound at 100 μM, 48 h incubation; read-out: Cell Viability (%) (N = 3)
Description: (§1) The viability of HEK293 cells was determined by a CCK-8 assay according to the established protocol. Briefly, 5 × 10^3 cells/well HEK293 cells were cultured in 96-well plates at 37 °C under an atmosphere of 5% CO2 for 24 h and then treated with the tested compounds. After 48 h of incubation, CCK-8 reagent (20 μL) was added into each well and continuously incubated for 2 h at 37 °C. Absorbance at a wavelength of 450 nm was measured by a microplate reader, which was further used to calculate the cell viability. All the experiments were performed in triplicate.

[2] = system: NF-κB pathway; experiment: NF-κB inhibitory (immunosuppressive) activity, luciferase reporter assay in LPS-induced HEK293/NF-κB-Luc cells; settings: for inhibition at 100 µM / IC50: Homo sapiens; for inhibition at 100 µM: HEK293, 24 h, read-out: NF-κB Inhibitory Rates (%) (N = 3); for IC50: read-out: IC50 NF-κB inhibition
Description: The NF-κB inhibitory activities were measured using the HEK293/NF-κB-Luc cells, which were generated as described previously. Briefly, HEK293 cells were co-transfected with a luciferase reporter plasmid, which contained an NF-κB binding site and pcDNA3.1, using Lipofectamine 2000 at a concentration of 10:1. The HEK293/ NF-κB-Luc cells were plated in 48-well plates and cultured in DMEM supplemented with 10% fetal bovine serum (FBS) for 16 h. Then, the cells were treated with the tested compounds, followed by stimulation with 1 μg/mL of LPS for 24 h. The cells were rinsed twice with phosphate-buffered saline (PBS, pH 7.4) and lysed with passive lysis buffer. Then, the inhibitory effects on NF-κB were analyzed using the luciferase assay system according to the manufacturer’s instructions. All the experiments were performed in triplicate.

[3] = system: HEK293 cells; experiment: Cell viability assay (CCK-8); settings: for influence on the cell viability: CCK-8, at a concentration of 100 μM
Description: as §1

[4] = HEK293/NF-κB-Luc cells induced by LPS (1 μg/mL, 24 h), compound at 100 μM
[5] = HEK293/NF-κB-Luc cells induced by LPS

Row | Molecule | viability at 48 h, 100 µM [1] [%] | inhibition at 100 µM [2, 4] [%] | influence on the cell viability [3] | IC50 [2, 5] [µM] | NF-κB Inhibitory Rates (%) (N = 3) ([2]; positive control, HEK293/NF-κB-Luc cells induced by LPS, concentration not given) | Cell Viability (%) (N = 3) ([3]; HEK293 cells, CCK-8, compound at 100 μM, 48 h incubation) | NF-κB Inhibitory Rates (%) (N = 3) [2, 4]
1 | CC(=O)OCC12[C@H](OC(C)=O)[C@H](OC(C)=O)[C@@H]3[C@@H](O)[C@@]14O[C@@]3(C)COC(=O)c1cccnc1CCC(C)(O)C(=O)O[C@@H]([C@H](OC(=O)c1ccoc1)[C@@H]2OC(C)=O)[C@]4(C)O (stereo partly drawn) [Compound 4, 2β-furanoyloxy-1β,7β,8β,11-tetraacetoxy-4α,5α-dihydroxy-3α,15-[2′-methyl-2′-hydroxy-4′-(3′′-carboxy-2′′ -pyridyl)butanoic acid] dicarbolactone dihydro-β-agarofuran] | 101 ± 3.58 | 7.27 ± 2.28 | – | – | – | – | –
2 | CC(=O)OCC12[C@H](OC(C)=O)[C@H](OC(C)=O)[C@@H]3[C@@H](O)[C@@]14O[C@@]3(C)COC(=O)c1cccnc1CCC(C)(O)C(=O)O[C@@H]([C@H](OC(=O)c1ccccc1)[C@@H]2OC(C)=O)[C@]4(C)O (stereo partly drawn) [Compound 5, 2β-benzoyloxy-1β,7β,8β,11-tetraacetoxy-4α,5α-dihydroxy-3α,15-[2′-methyl-2′-hydroxy-4′-(3′′-carboxy-2′′-pyridyl)butanoic acid] dicarbolactone dihydro-β-agarofuran] | 93.8 ± 2.2 | > 50 | no influence on the cell viability; also recorded: no effects on the cell viability | 8.75 | – | – | –
3 | CC(=O)OCC12C(OC(C)=O)C(=O)C3C(OC(C)=O)C14OC3(C)COC(=O)c1cccnc1CCC(C)(OC(=O)c1ccoc1)C(=O)OC(C(OC(C)=O)C2OC(C)=O)C4(C)O (stereo not drawn) [Compound 9, 1β,2β,5α,8β,11-pentaacetoxy-4α-droxy-7-oxo-3α,15-[2′-methyl-2′-(3-furoyloxy)-4′-(3′′-carboxy-2′′-pyridyl)butanoic acid] dicarbolactone dihydro-β-agarofuran] | 99.5 ± 5.71 | 37.4 ± 1.99 | – | – | – | – | –
4 | CC(=O)OCC12[C@H](OC(C)=O)C(=O)[C@@H]3[C@@H](OC(C)=O)[C@@]14O[C@@]3(C)COC(=O)c1cccnc1CCC(C)(OC(=O)c1ccccc1)C(=O)O[C@@H]([C@H](OC(C)=O)[C@@H]2OC(C)=O)[C@]4(C)O (stereo partly drawn) [Compound 10, 1β,2β,5α,8β,11-pentaacetoxy-4α-droxy-7-oxo-3α,15-[2′-methyl-2′-(3-benzoyloxy)-4′-(3′′-carboxy-2′′-pyridyl)butanoic acid] dicarbolactone dihydro-β-agarofuran] | 102.8 ± 0.89 | 21.7 ± 4.42 | – | – | – | – | –
5 | CC(=O)OC[C@]12[C@H](OC(C)=O)[C@H](OC(C)=O)[C@@H]3[C@@H](OC(C)=O)[C@@]14O[C@@]3(C)COC(=O)c1cccnc1CCC(C)(O)C(=O)O[C@@H]([C@H](O)[C@@H]2OC(C)=O)[C@@]4(C)O (stereo partly drawn) [Compound 11, tripfordine A] | 102 ± 3.66 | > 50 | no influence on the cell viability; also recorded: no effects on the cell viability | 0.74 | – | – | –
6 | CC(=O)OCC12[C@H](OC(C)=O)[C@H](OC(C)=O)[C@@H]3[C@@H](OC(C)=O)[C@@]14O[C@@]3(C)COC(=O)c1cccnc1CCC(C)C(=O)O[C@@H]([C@H](O)[C@@H]2OC(C)=O)[C@]4(C)O (stereo partly drawn) [Compound 12, wilforjine] | 93.5 ± 2.76 | 23 ± 3.43 | – | – | – | – | –
7 | CC(=O)OCC12[C@H](OC(C)=O)C(=O)[C@@H]3[C@@H](OC(C)=O)[C@@]14O[C@@]3(C)COC(=O)c1cccnc1CCC(C)C(=O)O[C@@H]([C@H](OC(C)=O)[C@@H]2OC(C)=O)[C@]4(C)O (stereo partly drawn) [Compound 13, evonimine] | 100 ± 6.4 | 26.5 ± 5.99 | – | – | – | – | –
8 | CC(=O)OCC12[C@H](OC(C)=O)[C@H](OC(C)=O)[C@@H]3[C@@H](OC(C)=O)[C@@]14O[C@@]3(C)COC(=O)c1cccnc1CCC(C)(OC(=O)c1ccccc1)C(=O)O[C@@H]([C@H](OC(C)=O)[C@@H]2OC(C)=O)[C@]4(C)O (stereo partly drawn) [Compound 15, wilfornine A] | 110 ± 5.83 | 8.73 ± 2.07 | – | – | – | – | –
9 | CC(=O)OC[C@]12[C@H](OC(C)=O)[C@H](OC(C)=O)[C@@H]3[C@@H](OC(C)=O)[C@@]14O[C@@]3(C)COC(=O)c1cccnc1CCC(C)C(=O)O[C@@H]([C@H](OC(=O)c1ccccc1)[C@@H]2OC(C)=O)[C@]4(C)O (stereo partly drawn) [Compound 16, wilforine] | 103 ± 2.21 | > 50 | no influence on the cell viability; also recorded: no effects on the cell viability | 15.7 | – | – | –
10 | Cc1ccc(NCCCc2ccccc2)c(N)c1 [JSH23, reference compound] | – | – | – | – | 74.56 ± 1.83 | – | –
11 | wilfortrine [Compound 14] | – | – | – | – | – | 93.76 ± 1.82 | 40.20 ± 3.92
